From ChEMBL document CHEMBL3611999, “Bifunctional compounds targeting both D2 and non-α7 nACh receptors: design, synthesis and pharmacological characterization” (Eur J Med Chem, 2015)
pIC50, pKi: −log10 of the molar value. Calls of active or inactive are those of the source. The calls are words filed in the database; no cut-off is given here.

Legend:
[1] = molecular target: Mitogen-activated protein kinase; ERK1/ERK2 (Homo sapiens) (UniProt P27361+P28482); assay: Induction of ERK1/2 phosphorylation in human HEK293 cells at 10 uM after 5 mins by Western blotting; assay type: cell-based
Sequence of Mitogen-activated protein kinase; ERK1/ERK2 (Homo sapiens) (P27361 whole entry, looked up): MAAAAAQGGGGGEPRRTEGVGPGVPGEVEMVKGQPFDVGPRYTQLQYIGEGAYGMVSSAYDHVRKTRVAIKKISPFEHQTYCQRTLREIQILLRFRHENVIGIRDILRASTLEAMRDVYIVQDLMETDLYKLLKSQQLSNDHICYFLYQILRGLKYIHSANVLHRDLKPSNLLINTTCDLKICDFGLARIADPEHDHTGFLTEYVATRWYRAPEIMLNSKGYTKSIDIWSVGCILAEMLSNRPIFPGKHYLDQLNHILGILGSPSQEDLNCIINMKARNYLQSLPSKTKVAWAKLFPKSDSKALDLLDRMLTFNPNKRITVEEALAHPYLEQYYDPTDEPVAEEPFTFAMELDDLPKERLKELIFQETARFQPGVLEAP
Sequence of Mitogen-activated protein kinase; ERK1/ERK2 (Homo sapiens) (P28482 whole entry, looked up): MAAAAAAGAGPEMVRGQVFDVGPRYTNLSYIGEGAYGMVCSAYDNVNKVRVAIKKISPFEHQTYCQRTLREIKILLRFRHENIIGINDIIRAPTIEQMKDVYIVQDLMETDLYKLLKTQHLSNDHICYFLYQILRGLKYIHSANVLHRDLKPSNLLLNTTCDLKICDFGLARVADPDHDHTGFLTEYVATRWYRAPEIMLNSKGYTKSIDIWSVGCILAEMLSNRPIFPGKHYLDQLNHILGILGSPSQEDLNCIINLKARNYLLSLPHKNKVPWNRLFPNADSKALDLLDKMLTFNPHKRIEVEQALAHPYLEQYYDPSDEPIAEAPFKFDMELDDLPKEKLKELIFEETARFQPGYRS

[2] = Antagonist activity at nAChR in Sprague-Dawley rat striatal slices assessed as inhibition of nicotine-induced [3H]-dopamine release; details: Sprangue-Dawley
[3] = molecular target: T1, Neuronal acetylcholine receptor; alpha4/beta2 (Homo sapiens, UniProt P17787+P43681); assay: Agonist activity at alpha4beta2 nAChR (unknown origin) expressed in HEK293 cells assessed as increase of ERK1/2 phosphorylation at 10 uM after 5 mins by Western blotting; assay type: cell-based
T1 sequence (P17787 whole entry): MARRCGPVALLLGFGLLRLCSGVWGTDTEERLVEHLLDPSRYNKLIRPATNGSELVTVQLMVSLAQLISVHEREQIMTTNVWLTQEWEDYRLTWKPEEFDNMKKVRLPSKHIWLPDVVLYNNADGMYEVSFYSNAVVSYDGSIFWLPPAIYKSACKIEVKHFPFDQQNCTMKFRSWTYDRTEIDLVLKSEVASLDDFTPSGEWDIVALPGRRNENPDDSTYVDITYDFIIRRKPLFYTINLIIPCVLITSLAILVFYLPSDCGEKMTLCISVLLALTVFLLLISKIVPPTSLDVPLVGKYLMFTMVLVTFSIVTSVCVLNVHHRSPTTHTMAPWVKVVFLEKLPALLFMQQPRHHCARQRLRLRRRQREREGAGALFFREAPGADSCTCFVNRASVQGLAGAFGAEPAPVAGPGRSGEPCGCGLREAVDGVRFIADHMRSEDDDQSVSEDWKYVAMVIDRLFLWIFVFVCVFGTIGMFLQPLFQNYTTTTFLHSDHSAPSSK
T1 sequence (P43681 whole entry): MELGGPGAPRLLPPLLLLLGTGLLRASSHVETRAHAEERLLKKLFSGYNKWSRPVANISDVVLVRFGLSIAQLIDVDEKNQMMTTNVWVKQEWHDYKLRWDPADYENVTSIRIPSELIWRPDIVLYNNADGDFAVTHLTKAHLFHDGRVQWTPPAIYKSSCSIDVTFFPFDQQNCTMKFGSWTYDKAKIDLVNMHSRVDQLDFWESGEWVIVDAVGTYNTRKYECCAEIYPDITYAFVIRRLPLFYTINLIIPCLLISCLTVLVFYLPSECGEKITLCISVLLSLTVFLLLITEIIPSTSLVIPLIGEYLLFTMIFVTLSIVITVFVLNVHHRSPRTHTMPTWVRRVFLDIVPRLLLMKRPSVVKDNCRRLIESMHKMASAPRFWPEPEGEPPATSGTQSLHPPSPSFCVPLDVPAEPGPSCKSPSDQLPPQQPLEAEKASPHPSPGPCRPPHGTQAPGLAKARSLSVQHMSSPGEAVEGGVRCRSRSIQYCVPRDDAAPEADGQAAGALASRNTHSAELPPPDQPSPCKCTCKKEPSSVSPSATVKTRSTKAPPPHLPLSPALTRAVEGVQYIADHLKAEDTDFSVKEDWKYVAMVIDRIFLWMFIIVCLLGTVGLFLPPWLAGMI

[4] = molecular target: T1, Neuronal acetylcholine receptor; alpha4/beta2; assay: Partial agonist activity at human alpha4beta2 nAChR expressed in HEK293 cells assessed as inward current at holding potential of -70 mV by patch clamp technique relative to acetylcholine; assay type: cell-based; set-up: concentration or dose not given beside the values
D(3) dopamine receptor = D(3) dopamine receptor (Homo sapiens, UniProt P35462); assay: Displacement of [3H]raclopride from dopamine D3 receptor (unknown origin) expressed in HEK293 cells after 30 mins; assay type: cell-based
Sequence of D(3) dopamine receptor (P35462 whole entry): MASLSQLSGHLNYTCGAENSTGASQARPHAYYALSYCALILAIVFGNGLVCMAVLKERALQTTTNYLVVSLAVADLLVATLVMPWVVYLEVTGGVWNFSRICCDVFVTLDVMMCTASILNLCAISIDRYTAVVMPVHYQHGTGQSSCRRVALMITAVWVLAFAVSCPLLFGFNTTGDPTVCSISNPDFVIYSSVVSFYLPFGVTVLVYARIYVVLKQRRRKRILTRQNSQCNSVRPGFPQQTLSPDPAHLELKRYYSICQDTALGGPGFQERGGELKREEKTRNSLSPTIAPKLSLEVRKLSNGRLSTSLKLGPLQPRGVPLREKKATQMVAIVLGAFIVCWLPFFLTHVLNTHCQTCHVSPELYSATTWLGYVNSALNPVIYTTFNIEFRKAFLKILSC

[5] = molecular target: Neuronal acetylcholine receptor; alpha4/beta2 (Rattus norvegicus, UniProt P09483+P12390); assay: Displacement of [3H]epibatidine from immunoimmobilized alpha4beta2 nAChR in Sprague-Dawley rat striatal membranes by liquid scintillation counting; set-up: species or system Sprangue-Dawley, Striatum, Membrane
Sequence of Neuronal acetylcholine receptor; alpha4/beta2 (Rattus norvegicus, UniProt P09483+P12390) (P09483 whole entry): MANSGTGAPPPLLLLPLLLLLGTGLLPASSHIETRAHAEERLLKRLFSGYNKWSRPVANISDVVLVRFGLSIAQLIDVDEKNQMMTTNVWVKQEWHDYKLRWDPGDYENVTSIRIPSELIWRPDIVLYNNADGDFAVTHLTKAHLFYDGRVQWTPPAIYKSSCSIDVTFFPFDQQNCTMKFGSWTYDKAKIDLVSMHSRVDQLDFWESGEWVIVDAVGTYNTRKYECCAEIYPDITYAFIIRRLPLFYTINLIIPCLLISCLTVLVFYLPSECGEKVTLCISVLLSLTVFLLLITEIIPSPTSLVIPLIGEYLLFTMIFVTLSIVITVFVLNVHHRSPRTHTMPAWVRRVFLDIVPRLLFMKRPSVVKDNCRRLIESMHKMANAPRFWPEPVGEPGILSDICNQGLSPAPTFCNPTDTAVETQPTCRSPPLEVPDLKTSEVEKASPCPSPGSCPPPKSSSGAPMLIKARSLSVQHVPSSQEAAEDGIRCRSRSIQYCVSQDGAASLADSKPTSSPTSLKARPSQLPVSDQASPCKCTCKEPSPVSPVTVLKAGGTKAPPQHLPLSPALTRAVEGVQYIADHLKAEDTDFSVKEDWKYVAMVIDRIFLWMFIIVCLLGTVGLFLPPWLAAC
Sequence of Neuronal acetylcholine receptor; alpha4/beta2 (Rattus norvegicus, UniProt P09483+P12390) (P12390 whole entry): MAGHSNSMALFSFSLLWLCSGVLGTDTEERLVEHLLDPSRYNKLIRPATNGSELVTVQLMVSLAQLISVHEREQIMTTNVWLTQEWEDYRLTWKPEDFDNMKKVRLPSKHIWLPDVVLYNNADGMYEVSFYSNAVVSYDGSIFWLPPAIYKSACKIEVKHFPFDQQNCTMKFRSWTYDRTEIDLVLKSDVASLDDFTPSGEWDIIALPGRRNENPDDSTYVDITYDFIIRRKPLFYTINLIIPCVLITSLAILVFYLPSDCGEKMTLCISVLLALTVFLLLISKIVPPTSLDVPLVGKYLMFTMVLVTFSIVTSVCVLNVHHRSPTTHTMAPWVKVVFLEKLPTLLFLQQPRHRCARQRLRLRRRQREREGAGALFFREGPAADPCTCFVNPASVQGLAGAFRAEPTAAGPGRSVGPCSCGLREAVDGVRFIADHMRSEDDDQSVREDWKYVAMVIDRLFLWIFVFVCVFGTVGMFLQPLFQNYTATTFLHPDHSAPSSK

[6] = molecular target: Neuronal acetylcholine receptor subunit alpha-6/beta-3 (Rattus norvegicus) (UniProt P12391+P43143); assay: Ratio of NHNB Ki to compound Ki for immunoimmobilized alpha6beta2 nAChR in Sprague-Dawley rat striatal membranes; details: Sprangue-Dawley
[7] = molecular target: T1, Neuronal acetylcholine receptor; alpha4/beta2; assay: Antagonist activity at alpha4beta2 nAChR (unknown origin) expressed in HEK293 cells assessed as reduction of nicotine-induced ERK1/2 phosphorylation at 10 uM treated 30 mins before nicotine addition by Western blotting; assay type: cell-based
[8] = molecular target: T1, Neuronal acetylcholine receptor; alpha4/beta2; assay: Antagonist activity at human alpha4beta2 nAChR expressed in HEK293 cells assessed as inhibition of acetylcholine-induced inward current at holding potential of -70 mV by patch clamp technique; assay type: cell-based
[9] = molecular target: Neuronal acetylcholine receptor subunit alpha-7 (Rattus norvegicus, UniProt Q05941); assay: Displacement of [125I]alpha-bungarotoxin from alpha7 nAChR in Sprague-Dawley rat hippocampus membrane homogenates by gamma counting; set-up: species or system Sprangue-Dawley
Sequence of Neuronal acetylcholine receptor subunit alpha-7 (Q05941 whole entry): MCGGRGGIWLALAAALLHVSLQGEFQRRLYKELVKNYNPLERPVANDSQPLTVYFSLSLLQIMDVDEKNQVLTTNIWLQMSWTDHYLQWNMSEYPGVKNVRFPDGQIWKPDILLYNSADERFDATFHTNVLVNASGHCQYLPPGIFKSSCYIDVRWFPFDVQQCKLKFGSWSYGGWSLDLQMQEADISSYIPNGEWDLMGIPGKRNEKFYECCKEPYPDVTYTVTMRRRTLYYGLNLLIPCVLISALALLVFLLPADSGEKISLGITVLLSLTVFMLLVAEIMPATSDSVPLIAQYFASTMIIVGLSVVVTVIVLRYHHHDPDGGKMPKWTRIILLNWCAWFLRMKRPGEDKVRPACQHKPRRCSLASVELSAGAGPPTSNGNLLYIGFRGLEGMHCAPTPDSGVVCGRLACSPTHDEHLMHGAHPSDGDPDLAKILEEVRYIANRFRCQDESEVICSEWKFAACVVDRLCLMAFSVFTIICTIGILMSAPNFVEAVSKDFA

[10] = molecular target: Neuronal acetylcholine receptor; alpha4/beta2 (Rattus norvegicus) (UniProt P09483+P12390); assay: Ratio of NHNB Ki to compound Ki for immunoimmobilized alpha4beta2 nAChR in Sprague-Dawley rat striatal membranes; details: Sprangue-Dawley
D(2) dopamine receptor = D(2) dopamine receptor (Rattus norvegicus, UniProt P61169); assay: Displacement of [3H]raclopride from dopamine D2 receptor in Sprague-Dawley rat striatal membranes after 30 mins; set-up: species or system Sprangue-Dawley, Striatum, Membrane
Sequence of D(2) dopamine receptor (P61169 whole entry): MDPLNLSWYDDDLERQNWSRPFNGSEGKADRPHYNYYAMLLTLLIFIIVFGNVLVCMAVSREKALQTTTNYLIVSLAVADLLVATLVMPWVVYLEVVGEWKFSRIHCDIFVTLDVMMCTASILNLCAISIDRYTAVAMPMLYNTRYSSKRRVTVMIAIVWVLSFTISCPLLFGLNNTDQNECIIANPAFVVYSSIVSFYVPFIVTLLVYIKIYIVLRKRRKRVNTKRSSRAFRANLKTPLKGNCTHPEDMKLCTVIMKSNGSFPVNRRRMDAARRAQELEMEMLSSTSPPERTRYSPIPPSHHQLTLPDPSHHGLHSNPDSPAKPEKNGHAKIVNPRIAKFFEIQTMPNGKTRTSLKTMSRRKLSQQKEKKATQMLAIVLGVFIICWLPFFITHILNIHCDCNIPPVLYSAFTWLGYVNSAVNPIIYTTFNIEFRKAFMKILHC

[11] = molecular target: T1, Neuronal acetylcholine receptor; alpha4/beta2; assay: Binding affinity to alpha4beta2 nAChR (unknown origin); assay type: protein-complex assay
Rattus norvegicus [12] = species on record: Rattus norvegicus; assay: Agonist activity at nAChR in Sprague-Dawley rat striatal slices assessed as induction of [3H]-dopamine release; details: Sprangue-Dawley
Rattus norvegicus [13] = species on record: Rattus norvegicus; assay: Antagonist activity at nAChR in Sprague-Dawley rat striatal slices assessed as inhibition of nicotine-induced [3H]-dopamine release at 10 uM; details: Sprangue-Dawley
Rattus norvegicus [14] = species on record: Rattus norvegicus; assay: Agonist activity at nAChR in Sprague-Dawley rat striatal slices assessed as induction of [3H]-dopamine release at 25 uM; details: Sprangue-Dawley
Rattus norvegicus [15] = species on record: Rattus norvegicus; assay: Agonist activity at nAChR in Sprague-Dawley rat striatal slices assessed as induction of [3H]-dopamine release at 10 uM; details: Sprangue-Dawley
Rattus norvegicus [16] = species on record: Rattus norvegicus; assay: Antagonist activity at nAChR in Sprague-Dawley rat striatal slices assessed as inhibition of nicotine-induced [3H]-dopamine release at 5 uM; details: Sprangue-Dawley
[17] = molecular target: D(2) dopamine receptor (Homo sapiens) (UniProt P14416); assay: Partial agonist activity at dopamine D2 receptor (unknown origin) expressed in HEK293 cells assessed as reduction of quinpirole-induced ERK1/2 phosphorylation at 10 uM treated 30 mins before quinpirole addition by Western blotting; assay type: cell-based; set-up: scale not given: the % may be the effect or the level left
Sequence of D(2) dopamine receptor (Homo sapiens) (P14416 whole entry): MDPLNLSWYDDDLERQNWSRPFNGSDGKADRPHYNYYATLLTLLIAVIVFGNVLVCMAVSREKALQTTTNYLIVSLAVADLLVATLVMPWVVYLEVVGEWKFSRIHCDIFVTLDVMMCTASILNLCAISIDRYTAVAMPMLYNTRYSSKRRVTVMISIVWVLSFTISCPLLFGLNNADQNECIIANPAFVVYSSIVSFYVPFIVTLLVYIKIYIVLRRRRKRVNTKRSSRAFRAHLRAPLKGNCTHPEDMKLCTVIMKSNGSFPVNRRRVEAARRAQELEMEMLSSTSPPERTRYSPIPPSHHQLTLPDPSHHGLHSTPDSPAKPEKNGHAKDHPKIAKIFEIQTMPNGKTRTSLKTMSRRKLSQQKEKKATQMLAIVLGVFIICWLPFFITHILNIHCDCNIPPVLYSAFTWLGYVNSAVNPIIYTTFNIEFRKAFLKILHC

Structure (SMILES) | Activity [1] | pIC50 [2] | Activity [3] | Activity [4] [%] | pKi (D(3) dopamine receptor) | pKi [5] | inhibition [7] [%] | pIC50 [8] | pKi [9] | pKi (D(2) dopamine receptor) | Activity (Rattus norvegicus [12]) | also measured
CN1CCC[C@H]1c1ccc[n+](CCCCCCCCCCNCC2CCc3ccc(O)cc3O2)c1 (mixture of isomers) | inactive | 4.98 | inactive | 4 | 8.48 | 5.97 | 57 | 7.00 | 4.37 | 7.85 | – | Ratio Ki [6]: 30; Ratio Ki [10]: 43
CCCCCCCCCC[n+]1cccc([C@@H]2CCCN2C)c1 | – | – | – | 1.3 | – | 5.06 | – | 6.70 | 4.08 | – | Active | pKi [11]: 10.05; inhibition (Rattus norvegicus [13]): inactive
CNC1(C)C2CCC(C2)C1(C)C (stereo not given) [MECAMYLAMINE] | – | 6.52 | – | – | – | – | – | – | – | – | – | –
CN1CCC[C@H]1c1ccc[n+](CCCCCNCC2CCc3ccc(O)cc3O2)c1 (mixture of isomers) | inactive | 5.64 | inactive | 13 | 7.37 | 5.64 | 55 | 6.70 | 4.96 | 6.92 | inactive | Ratio Ki [6]: 30; Ratio Ki [10]: 43
CN1CCC[C@H]1c1cccnc1 | – | – | Active | – | – | – | – | – | – | – | – | –
CCCNCC1CCc2ccc(O)cc2O1 (stereo not given) | – | – | – | – | – | < 4.00 | – | – | < 4.00 | – | – | –
CO[C@H]1CC=C2CCN3CCC4=C(CC(=O)OC4)[C@]23C1 | – | 5.66 | – | – | – | – | – | – | – | – | – | –
CCCCC[n+]1cccc([C@@H]2CCCN2C)c1 | – | 4.82 | – | 27 | – | 5.40 | – | 7.05 | < 4.00 | – | – | –
CCCCCCCCCCCC[n+]1cccc([C@@H]2CCCN2C)c1 | – | 6.30 | – | 9 | – | 5.85 | – | – | 4.08 | – | – | Activity (Rattus norvegicus [14]): Active; pKi [11]: 9.85
CN1CCC[C@H]1c1ccc[n+](CCCCCCCCCCCCNCC2CCc3ccc(O)cc3O2)c1 (mixture of isomers) | inactive | – | inactive | 8.3 | 8.00 | 5.56 | 57 | – | 4.19 | 7.70 | – | Activity (Rattus norvegicus [15]): Active; Ratio Ki [6]: 30; Ratio Ki [10]: 43; inhibition (Rattus norvegicus [16]): 10%
CCCCCC[n+]1cccc([C@@H]2CCCN2C)c1 | – | 5.05 | – | 18 | – | 5.33 | – | 6.52 | < 4.00 | – | inactive | –
CN1CCC[C@H]1c1ccc[n+](CCCCCCNCC2CCc3ccc(O)cc3O2)c1 (mixture of isomers) | inactive | 5.16 | inactive | 15 | 7.80 | 6.96 | 65 | 6.10 | 4.89 | 7.01 | inactive | Activity [17]: 40%
CCCCCCNCC1CCc2ccc(O)cc2O1 (stereo not given) | – | – | – | – | – | < 4.00 | – | – | < 4.00 | – | – | –
